Measured values as given in publication PMC11079024, “Identification of a family of species-selective complex I inhibitors as potential anthelmintics” (Nature Communications, 2024).

Each molecule was assayed on ben-1 mutant (ECA882) C. elegans (assay: microbe, parasite or virus in culture). Conditions: Caenorhabditis elegans, read-out: C. elegans (ben-1) Development & Viability Assay LC50.
How it was run: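 Development and viability scored from single well images as total worm pixels divided by the matching DMSO control value, mean of ≥3 replicates. Worms added as synchronized L1s to HB101 suspension in liquid NGM with compound (1% DMSO v/v), grown 6 days at 20 °C with shaking.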

SMILES | LC50 [µM]
Cc1ccc(SCCCn2cnc3ccccc32)cc1 [Compound 7926035] | 69.8
Nc1nc2ccccc2n1Cc1ccc(Br)cc1 [Compound 7313068] | 63.1
c1ccc(CCCCCCCCCCc2nc3ccccc3[nH]2)cc1 [STL442376] | 640
Nc1nc2ccccc2n1Cc1ccc(Cl)cc1 [Compound 5652765] | 71.7
Cc1ccc2nc(C(C)c3ccc(CC(C)C)cc3)[nH]c2c1 (stereo not drawn) [STL482096] | > 1000
Cc1ccc(OCCn2cnc3ccccc32)cc1 [Compound 5671538] | > 1000
Brc1ccc(Cn2cnc3ccccc32)cc1 [Compound 5542661] | 41.4

Same assay, conditions: Caenorhabditis elegans, read-out: C. elegans ben-1(e1880) development/viability

SMILES | viability at 1 µM [%] | viability at 2 µM [%] | viability at 3.9 µM [%] | viability at 15.6 µM [%] | viability at 31.3 µM [%] | viability at 62.5 µM [%] | viability at 125 µM [%] | viability at 250 µM [%] | viability at 500 µM [%] | viability at 1000 µM [%]
Cc1ccc(SCCCn2cnc3ccccc32)cc1 [Compound 7926035] | 94.4 | 87.2 | 86.3 | 91.5 | 76.7 | 57.7 | 5.4 | 2.6 | 3.4 | 5.6
Nc1nc2ccccc2n1Cc1ccc(Cl)cc1 [Compound 5652765] | 98 | 94.6 | 92.8 | 89.9 | 76.1 | 63.7 | 13.8 | 7.4 | 6.3 | –
Cc1ccc(OCCn2cnc3ccccc32)cc1 [Compound 5671538] | – | – | – | 100 | 100 | 100 | 100 | 100 | 100 | 100

Same assay, conditions: Caenorhabditis elegans, read-out: C. elegans ben-1 LC50

SMILES | LC50 [µM]
Cc1ccc2nc(C(C)c3ccc(CC(C)C)cc3)[nH]c2c1 (stereo not drawn) [STL482096] | > 500
Cc1ccc(OCCn2cnc3ccccc32)cc1 [Compound 5671538] | > 500

Same assay, conditions: Caenorhabditis elegans, read-out: C. elegans ben-1 log10 LC50 (converted)

SMILES | LC50 [µM]
Cc1ccc(SCCCn2cnc3ccccc32)cc1 [Compound 7926035] | 69.8
Nc1nc2ccccc2n1Cc1ccc(Br)cc1 [Compound 7313068] | 63.1
c1ccc(CCCCCCCCCCc2nc3ccccc3[nH]2)cc1 [STL442376] | 640
Nc1nc2ccccc2n1Cc1ccc(Cl)cc1 [Compound 5652765] | 71.6
Cc1ccc2nc(C(C)c3ccc(CC(C)C)cc3)[nH]c2c1 (stereo not drawn) [STL482096] | > 500
Cc1ccc(OCCn2cnc3ccccc32)cc1 [Compound 5671538] | > 500
Brc1ccc(Cn2cnc3ccccc32)cc1 [Compound 5542661] | 41.4

What follows are molecules tested on L1 wild-type C. elegans (assay: microbe, parasite or virus in culture). Conditions: Caenorhabditis elegans, read-out: C. elegans KCN Survival Assay LC50, estimated from fitted dose-response curves; mean of at least two biological replicates.

SMILES | LC50 [µM]
Cc1ccc(SCCCn2cnc3ccccc32)cc1 [Compound 7926035] | 4.71
Nc1nc2ccccc2n1Cc1ccc(Br)cc1 [Compound 7313068] | 14.9
c1ccc(CCCCCCCCCCc2nc3ccccc3[nH]2)cc1 [STL442376] | 5.61
Nc1nc2ccccc2n1Cc1ccc(Cl)cc1 [Compound 5652765] | 16.9
Cc1ccc2nc(C(C)c3ccc(CC(C)C)cc3)[nH]c2c1 (stereo not drawn) [STL482096] | 6.76
Cc1ccc(OCCn2cnc3ccccc32)cc1 [Compound 5671538] | 28.3
Brc1ccc(Cn2cnc3ccccc32)cc1 [Compound 5542661] | 7.75

What follows are molecules tested against B. taurus (heart) complex I (Bos taurus, UniProt P03887+P17694+P42026) (assay: biochemical). Conditions: B. taurus heart mitochondria; estimated from fitted dose-response curves; read-out: B. taurus Complex I IC50.
B. taurus (heart) complex I, sequence (P03887 whole entry): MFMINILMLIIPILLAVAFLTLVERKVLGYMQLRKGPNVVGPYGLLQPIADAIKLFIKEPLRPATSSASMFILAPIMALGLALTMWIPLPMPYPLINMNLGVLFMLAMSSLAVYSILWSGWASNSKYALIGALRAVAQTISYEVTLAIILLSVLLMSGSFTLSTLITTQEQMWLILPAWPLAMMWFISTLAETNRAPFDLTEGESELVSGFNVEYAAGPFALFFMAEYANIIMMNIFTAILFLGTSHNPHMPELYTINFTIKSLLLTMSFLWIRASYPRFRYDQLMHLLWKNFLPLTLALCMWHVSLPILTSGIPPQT
B. taurus (heart) complex I, sequence (P17694 34-463): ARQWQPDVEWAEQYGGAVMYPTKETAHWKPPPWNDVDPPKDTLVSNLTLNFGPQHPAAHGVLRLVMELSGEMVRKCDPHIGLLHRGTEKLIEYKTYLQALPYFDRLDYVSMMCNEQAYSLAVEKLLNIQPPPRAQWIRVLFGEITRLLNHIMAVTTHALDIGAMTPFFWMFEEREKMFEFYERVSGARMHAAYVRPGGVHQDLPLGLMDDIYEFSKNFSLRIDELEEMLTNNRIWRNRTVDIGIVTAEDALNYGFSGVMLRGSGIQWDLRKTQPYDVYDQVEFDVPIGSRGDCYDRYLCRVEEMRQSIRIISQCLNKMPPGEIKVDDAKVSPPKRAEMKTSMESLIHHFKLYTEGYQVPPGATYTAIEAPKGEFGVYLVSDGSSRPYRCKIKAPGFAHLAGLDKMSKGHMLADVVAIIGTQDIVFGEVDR
B. taurus (heart) complex I, sequence (P42026 38-216): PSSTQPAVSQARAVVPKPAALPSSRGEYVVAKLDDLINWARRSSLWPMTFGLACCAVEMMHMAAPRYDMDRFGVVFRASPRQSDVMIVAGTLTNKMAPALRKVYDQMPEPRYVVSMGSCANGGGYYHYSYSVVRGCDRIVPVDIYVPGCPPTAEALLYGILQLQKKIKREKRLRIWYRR
Assay type: biochemical
How it was run: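 Complex I activity followed as DCIP reduction (600 nm, 30 s reads, 15 min) with 80 μM NADH and 60 μM decylubiquinone in 25 mM KPi pH 7.5 containing 2 μM antimycin A and 2 mM KCN. Freeze-thawed mouse or bovine heart mitochondria at 0.2 mg/mL; initial-rate percent of solvent control, single-point 100 μM or dose-response.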

SMILES | IC50 [µM]
Cc1ccc(SCCCn2cnc3ccccc32)cc1 [Compound 7926035] | 3.59
Nc1nc2ccccc2n1Cc1ccc(Br)cc1 [Compound 7313068] | 1.31
c1ccc(CCCCCCCCCCc2nc3ccccc3[nH]2)cc1 [STL442376] | 3.32
Nc1nc2ccccc2n1Cc1ccc(Cl)cc1 [Compound 5652765] | 2.27
Cc1ccc2nc(C(C)c3ccc(CC(C)C)cc3)[nH]c2c1 (stereo not drawn) [STL482096] | 12.3
Brc1ccc(Cn2cnc3ccccc32)cc1 [Compound 5542661] | 3.35

Same assay, conditions: B. taurus heart mitochondria; read-out: B. taurus Complex I IC50

SMILES | IC50 [µM]
Cc1ccc(OCCn2cnc3ccccc32)cc1 [Compound 5671538] | 17.4

Same assay, conditions: Dose 0.0001 µM; read-out: B. taurus mitochondrial complex I activity

SMILES | activity at 0.0001 µM [%]
Cc1ccc(SCCCn2cnc3ccccc32)cc1 [Compound 7926035] | 101
Nc1nc2ccccc2n1Cc1ccc(Cl)cc1 [Compound 5652765] | 93.5
Cc1ccc(OCCn2cnc3ccccc32)cc1 [Compound 5671538] | 94.3

Same assay, conditions: Dose 0.0005 µM; read-out: B. taurus mitochondrial complex I activity

SMILES | activity at 0.0005 µM [%]
Cc1ccc(SCCCn2cnc3ccccc32)cc1 [Compound 7926035] | 105
Nc1nc2ccccc2n1Cc1ccc(Cl)cc1 [Compound 5652765] | 96.1
Cc1ccc(OCCn2cnc3ccccc32)cc1 [Compound 5671538] | 97.5

Same assay, conditions: Dose 0.001 µM; read-out: B. taurus mitochondrial complex I activity

SMILES | activity at 0.001 µM [%]
Cc1ccc(SCCCn2cnc3ccccc32)cc1 [Compound 7926035] | 99.3
Nc1nc2ccccc2n1Cc1ccc(Cl)cc1 [Compound 5652765] | 91
Cc1ccc(OCCn2cnc3ccccc32)cc1 [Compound 5671538] | 95.2

Same assay, conditions: Dose 0.0025 µM; read-out: B. taurus mitochondrial complex I activity

SMILES | activity at 0.0025 µM [%]
Cc1ccc(SCCCn2cnc3ccccc32)cc1 [Compound 7926035] | 106
Nc1nc2ccccc2n1Cc1ccc(Cl)cc1 [Compound 5652765] | 95.6
Cc1ccc(OCCn2cnc3ccccc32)cc1 [Compound 5671538] | 100

Same assay, conditions: Dose 0.005 µM; read-out: B. taurus mitochondrial complex I activity

SMILES | activity at 0.005 µM [%]
Cc1ccc(SCCCn2cnc3ccccc32)cc1 [Compound 7926035] | 102
Nc1nc2ccccc2n1Cc1ccc(Cl)cc1 [Compound 5652765] | 88.8
Cc1ccc(OCCn2cnc3ccccc32)cc1 [Compound 5671538] | 98.6

Same assay, conditions: Dose 0.013 µM; read-out: B. taurus mitochondrial complex I activity

SMILES | activity at 0.013 µM [%]
Cc1ccc(SCCCn2cnc3ccccc32)cc1 [Compound 7926035] | 101
Nc1nc2ccccc2n1Cc1ccc(Cl)cc1 [Compound 5652765] | 88.3
Cc1ccc(OCCn2cnc3ccccc32)cc1 [Compound 5671538] | 95.8

Same assay, conditions: Dose 0.025 µM; read-out: B. taurus mitochondrial complex I activity

SMILES | activity at 0.025 µM [%]
Cc1ccc(SCCCn2cnc3ccccc32)cc1 [Compound 7926035] | 100
Nc1nc2ccccc2n1Cc1ccc(Cl)cc1 [Compound 5652765] | 83.3
Cc1ccc(OCCn2cnc3ccccc32)cc1 [Compound 5671538] | 97.5

Same assay, conditions: Dose 0.063 µM; read-out: B. taurus mitochondrial complex I activity

SMILES | activity at 0.063 µM [%]
Cc1ccc(SCCCn2cnc3ccccc32)cc1 [Compound 7926035] | 98.8
Nc1nc2ccccc2n1Cc1ccc(Cl)cc1 [Compound 5652765] | 87.9
Cc1ccc(OCCn2cnc3ccccc32)cc1 [Compound 5671538] | 95

Same assay, conditions: Dose 0.125 µM; read-out: B. taurus mitochondrial complex I activity

SMILES | activity at 0.125 µM [%]
Cc1ccc(SCCCn2cnc3ccccc32)cc1 [Compound 7926035] | 97
Nc1nc2ccccc2n1Cc1ccc(Cl)cc1 [Compound 5652765] | 79.5
Cc1ccc(OCCn2cnc3ccccc32)cc1 [Compound 5671538] | 89.3

Same assay, conditions: Dose 0.313 µM; read-out: B. taurus mitochondrial complex I activity

SMILES | activity at 0.313 µM [%]
Cc1ccc(SCCCn2cnc3ccccc32)cc1 [Compound 7926035] | 98.3
Nc1nc2ccccc2n1Cc1ccc(Cl)cc1 [Compound 5652765] | 76.3
Cc1ccc(OCCn2cnc3ccccc32)cc1 [Compound 5671538] | 91.3

Same assay, conditions: Dose 0.625 µM; read-out: B. taurus mitochondrial complex I activity

SMILES | activity at 0.625 µM [%]
Cc1ccc(SCCCn2cnc3ccccc32)cc1 [Compound 7926035] | 78.8
Nc1nc2ccccc2n1Cc1ccc(Cl)cc1 [Compound 5652765] | 72.5
Cc1ccc(OCCn2cnc3ccccc32)cc1 [Compound 5671538] | 85.9

Same assay, conditions: Dose 1.5 µM; read-out: B. taurus mitochondrial complex I activity

SMILES | activity at 1.5 µM [%]
Cc1ccc(SCCCn2cnc3ccccc32)cc1 [Compound 7926035] | 78.8
Nc1nc2ccccc2n1Cc1ccc(Cl)cc1 [Compound 5652765] | 54.3
Cc1ccc(OCCn2cnc3ccccc32)cc1 [Compound 5671538] | 84.9

Same assay, conditions: Dose 3 µM; read-out: B. taurus mitochondrial complex I activity

SMILES | activity at 3 µM [%]
Cc1ccc(SCCCn2cnc3ccccc32)cc1 [Compound 7926035] | 41.2
Nc1nc2ccccc2n1Cc1ccc(Cl)cc1 [Compound 5652765] | 36.4
Cc1ccc(OCCn2cnc3ccccc32)cc1 [Compound 5671538] | 86.7

Same assay, conditions: Dose 15 µM; read-out: B. taurus mitochondrial complex I activity

SMILES | activity at 15 µM [%]
Cc1ccc(SCCCn2cnc3ccccc32)cc1 [Compound 7926035] | 10
Nc1nc2ccccc2n1Cc1ccc(Cl)cc1 [Compound 5652765] | 4.61
Cc1ccc(OCCn2cnc3ccccc32)cc1 [Compound 5671538] | 57.1

Same assay, conditions: Dose 37.5 µM; read-out: B. taurus mitochondrial complex I activity

SMILES | activity at 37.5 µM [%]
Cc1ccc(SCCCn2cnc3ccccc32)cc1 [Compound 7926035] | 2.81
Nc1nc2ccccc2n1Cc1ccc(Cl)cc1 [Compound 5652765] | 0.42
Cc1ccc(OCCn2cnc3ccccc32)cc1 [Compound 5671538] | 33.8

Same assay, conditions: Dose 75 µM; read-out: B. taurus mitochondrial complex I activity

SMILES | activity at 75 µM [%]
Cc1ccc(SCCCn2cnc3ccccc32)cc1 [Compound 7926035] | 1.94
Nc1nc2ccccc2n1Cc1ccc(Cl)cc1 [Compound 5652765] | 0.3
Cc1ccc(OCCn2cnc3ccccc32)cc1 [Compound 5671538] | 14.5

Same assay, conditions: log10 of IC50 in µM; B. taurus mitochondria

SMILES | Log IC50 B. taurus complex I [µM]
Cc1ccc(SCCCn2cnc3ccccc32)cc1 [Compound 7926035] | 0.56
Nc1nc2ccccc2n1Cc1ccc(Br)cc1 [Compound 7313068] | 0.12
c1ccc(CCCCCCCCCCc2nc3ccccc3[nH]2)cc1 [STL442376] | 0.52
Nc1nc2ccccc2n1Cc1ccc(Cl)cc1 [Compound 5652765] | 0.36
Cc1ccc2nc(C(C)c3ccc(CC(C)C)cc3)[nH]c2c1 (stereo not drawn) [STL482096] | 1.09
Cc1ccc(OCCn2cnc3ccccc32)cc1 [Compound 5671538] | 1.24
Brc1ccc(Cn2cnc3ccccc32)cc1 [Compound 5542661] | 0.53
